Source: paper PMC4050194 (FEBS Open Bio, 2014)

Molecular target: T1, Cra (FruR) protein of Pseudomonas putida (Cra^PP) (Pseudomonas putida, UniProt Q88PQ6)
T1 sequence (Q88PQ6 1-331): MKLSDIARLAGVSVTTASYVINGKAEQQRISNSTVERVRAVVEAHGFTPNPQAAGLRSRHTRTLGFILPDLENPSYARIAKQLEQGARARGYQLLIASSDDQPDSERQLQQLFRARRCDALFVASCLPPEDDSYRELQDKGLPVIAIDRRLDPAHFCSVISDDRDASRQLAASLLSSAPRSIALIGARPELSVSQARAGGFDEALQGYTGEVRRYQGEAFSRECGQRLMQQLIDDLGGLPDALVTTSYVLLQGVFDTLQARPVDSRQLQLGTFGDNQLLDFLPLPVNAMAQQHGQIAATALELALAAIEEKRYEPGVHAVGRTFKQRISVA
Experiment: ITC with purified Cra
Assay type: binding

O=P(O)(O)OCC1(O)O[C@H](CO)[C@@H](O)[C@@H]1O (stereo partly shown) [F1P, fructose 1-phosphate]
Kd: ~200 nM
